In US11773379B2, “Enzymes and reagents for measurement of short chain fatty acids” (SYSMEX CORPORATION, priority 2018, dated 2023):

Columns and labels:
[1] = tested on: BKII (recombinant butyrate kinase derived from Acetoanaerobium sticklandii); assay: Substrate specificity of butyrate kinase BKII; assay type: biochemical; conditions: 100 mM sodium salt of fatty acid in second reagent, pH 7.5
Protocol: (§1) Various fatty acids shown in Table 1 were used as a substrate. The measurement was performed using a 7180 type Hitachi automatic analyzer (Hitachi High-Tech Corporation). […] PHARMA CORPORATION) • 5 U/mL ADP-HK II (ADP dependent hexokinase: […] PHARMA CORPORATION) […] In the composition of the second reagent, “sodium salts of various fatty acids” means any one kind of sodium caprylate, sodium caproate, sodium valerate, sodium isovalerate, sodium butyrate, sodium isobutyrate, sodium propionate, sodium acetate, sodium lactate, and sodium succinate. Isobutyric acid, valeric acid, isovaleric acid, caproic acid, and octanoic acid, which are commercially available fatty acids and are not sold as sodium salts, were adjusted to pH 7.5 with sodium hydroxide. […] [Measurement Parameters of Automatic Analyzer] • Analysis method: […]

[2] = tested on: BKIII (recombinant butyrate kinase derived from Thermosediminibacter oceani); assay: Substrate specificity of butyrate kinase BKIII; assay type: biochemical; conditions: 100 mM sodium salt of fatty acid in second reagent, pH 7.5
Protocol: as §1

[3] = Thermal stability of recombinant butyrate kinase (remaining activity); assay type: physicochemical; conditions: for remaining activity: after incubating at 65° C. for 30 minutes, 50 mM potassium phosphate pH 7, 0.1% TN-100, about 1 mg/mL
Protocol: The thermal stability of BKII was examined based on the remaining activity after incubating approximately 0.3 mg/mL BKII at each temperature of 4 to 50° C. for 30 minutes in 10 mM Tris-HCl buffer (pH 7.5) containing 100 mM KCl. The thermal stability of BKIII was examined based on the remaining activity after incubating approximately 1 mg/mL BKIII in 50 mM potassium phosphate buffer (pH 7) containing 0.1% TN-100 (ADEKA Corporation) at each temperature of 4 to 80° C. for 30 minutes. The remaining activity was measured in the same manner as in Example 1. From FIGS. 12 and 13, the thermal stability (remaining activity) of BKII was 50% or more after treatment at 37° C. for 30 minutes, and the thermal stability (remaining activity) of BKIII was 85% or more after treatment at 70° C. for 30 minutes.
The thermal stability of BKIII, Thermosediminibacter oceani-derived butyrate kinase (ToBK2) prepared in Reference Example 4, Natranaerobius thermophilus-derived butyrate kinase (NtBK) prepared in Reference Example 5, and Symbiobacterium thermophilum-derived butyrate kinase (StBK) prepared in Reference Example 6 were compared. Specifically, each butyrate kinase was added to a 50 mM potassium phosphate buffer (pH 7) containing 0.1% TN-100 so that the concentration is about 1 mg/mL, and the remaining activity after incubating at 65° C. for 30 minutes was measured. The remaining activity was measured in the same manner as in Example 1.

[4] = Measurement of recombinant butyrate kinase activity (ADP-HK/G6PDH coupled, NADPH at 340 nm); specific activity, Km and Vmax; assay type: biochemical; conditions: with respect to butyric acid
Protocol: The enzymatic activity of BKII and BKIII with respect to butyric acid was measured based on the amount of ADP produced. In the Example 1, ADP produced by the action of butyrate kinase is used to produce NADPH by the action of ADP dependent hexokinase and glucose-6-phosphate dehydrogenase (see FIG. 1), and the amount of ADP produced was measured based on the change in absorbance at 340 nm due to the increase in NADPH. The measurement was performed using a 7080 type Hitachi automatic analyzer (Hitachi High-Tech Corporation).
[Composition of First Reagent] • 50 mM Tris-HCl (pH 7.5) (Sigma-Aldrich Co. LLC.) • 2 mM ATP (pH 7.5) (Oriental Yeast Co., Ltd.) • 2 mM MgCl2 (FUJIFILM Wako Pure Chemical Corporation) • 20 mM glucose (FUJIFILM Wako Pure Chemical Corporation) • 100 mM sodium butyrate (FUJIFILM Wako Pure Chemical Corporation) • 1 mM NADP (FUJIFILM Wako Pure Chemical Corporation) • 5 U/mL G6PDH II (Glucose-6-phosphate dehydrogenase: T-51, ASAHI KASEI PHARMA CORPORATION) • 5 U/mL ADP-HK II (ADP dependent hexokinase: T-92, ASAHI KASEI PHARMA CORPORATION) • 0.1% TN-100 (ADEKA Corporation)
[Composition of BKII Diluent] • 50 mM Tris-HCl (pH 7.5) (Sigma-Aldrich Co. LLC.) • 10 mM KCl (FUJIFILM Wako Pure Chemical Corporation)
[Composition of BKIII Diluent] • 50 mM Potassium phosphate buffer (pH 7.0) (Sigma-Aldrich Co. LLC.) • 0.1% TN-100 (ADEKA Corporation)
[Measurement Parameters of Automatic Analyzer] • Analysis method: Rate-A • Measurement wavelength (secondary/primary): 700 nm/340 nm • Reaction time: 5 minutes • Photometry point: 11 to 16 • Sample volume: 3 μL • First reagent amount: 150 μL […]
The sample was dispensed into a cuvette, then the first reagent was added and stirred. […] The cuvette was irradiated with light and the change in absorption at 340 nm was measured between about 200 seconds and about 296 seconds after the addition of the first reagent. […] The activity value (U/mL) of butyrate kinase was calculated from the following formula by defining the amount of enzyme that phosphorylates 1 μmol of butyric acid per minute as 1 U and using the value of the absorbance change per minute (ΔmAbs/min) calculated from the absorbance at the photometry point and the millimole extinction coefficient (c=6.3) of […] at 340 nm. […]
The specific activity (U/mg) is the activity value per 1 mg of enzyme. The protein (enzyme) concentrations of the BKII solution obtained in Reference Example 1 and the BKIII solution obtained in Reference Example 3 were quantified by the Bradford method, and the specific activities of BKII and BKIII with respect to butyric acid under the measurement conditions of Example 1 were calculated. […]
The Km and Vmax of BKII and BKIII with respect to butyric acid under the measurement conditions of Example 1 were determined by Lineweaver-Burk plot.

Row | Molecule | substrate specificity, relative value when the activity value with respect to butyric acid is 100 [1] | substrate specificity, relative value when the activity value with respect to butyric acid is 100 [2] | also measured
1 | CCC(=O)O [Propionic acid] | 62% | 41% | 
2 | CCCCC(=O)O [Valeric acid] | 161% | 138% | 
3 | CCCCCCCC(=O)O [Octanoic acid] | 0% | 0% | 
4 | CC(C)CC(=O)O [Isovaleric acid] | 133% | 148% | 
5 | O=C(O)CCC(=O)O [Succinic acid] | 2% | 0% | 
6 | CCCCCC(=O)O [Caproic acid] | 22% | 56% | 
7 | CC(O)C(=O)O (stereo not shown) [Lactic acid] | 0% | 0% | 
8 | BKII: recombinant butyrate kinase derived from Acetoanaerobium sticklandii obtained in Reference Example 1 (T7 tag and His tag; SEQ ID NO: 17) (protein, listed as Acetoanaerobium sticklandii, T7 tag and His tag) MEGTMSTYKILAINPGSTSTKIAVYENETQIMEKTLRHSTEEINKYEKIFDQFEFRKNVIVDAVSEAGIAIEELDAVVGRGGLLKPIKGGTYEVSDELIAGLKEPYLGEHASNLGGIIAKEIADAALAPSFIVDPVVVDEMNDVARISGMPEIPRFSIFHALNQKATARRFASEIGKSYEDINVIVAHMGGGVSVGAHEKGRVIDVNNALDGEGPFSPERAGGLPVGDLAKLCFSGKYTHAQIKKLLKGEGGIVAYLGTNDARDVEKMIAEGDEKAKLIYEAMAYQVAKEIGSCATVLKGKVDAIILTGGIAYSEMITTWIKERVSFIADVKIYAGEDEMSALAQGALRVLREEEKPQRYEA |  |  | thermal stability (remaining activity) ([3]; after treatment at 37° C. for 30 minutes, 10 mM Tris-HCl pH 7.5, 100 mM KCl): ≥ 50%; activity value of butyrate kinase ([4]; enzyme solution, 37° C., Tris-HCl pH 7.5): about 340 U/mL; Km ([4]; Lineweaver-Burk plot): 4.2 mM; Vmax ([4]; Lineweaver-Burk plot): 1100 U/mg; specific activity ([4]; measurement conditions of Example 1, protein by Bradford method): about 337 U/mg
9 | ToBK2: Thermosediminibacter oceani-derived butyrate kinase prepared in Reference Example 4 (SEQ ID NO: 21, His tag) (protein, listed as Thermosediminibacter oceani, His tag) MEKFRILAINPGSTSTKISIFHGEEEVFTENIVHDYEELKKFKNVIEQEGYRYEAILNALAARGYSLDEIDVVVARGGILRPVKAGTYRINDLMLEDLKDAVAGEHASNVAAFIAHRIGAEKGIPAYIVDPVSVDEMEDVARISGLDGIERKSLSHALNIRRVIYKVSEKFGKDPGELNFIVAHLGGGISIGAIRRGQMVDVESANCEGPFSPERSGGLPILELIDLCFSGRFTKDELKRRLIQEGGVYSYLGTKDIREVEERTRSGDKKAALILEAMVYQIAKCIGQMATVLKGDVDFIILTGGIAKSDYISECIADRVKFIAPVERVPGEEEMKALAEAACRVMTGREKVLDYGGGE |  |  | remaining activity [3]: 60.5%
10 | NtBK: Natranaerobius thermophilus-derived butyrate kinase prepared in Reference Example 5 (SEQ ID NO: 23, His tag) (protein, His tag; Natranaerobius thermophiles) MKQEHRLLVINPGSTSTKIAVYEGESPLIEKKLEHSPEELNKFQDIIDQYDFRKDSILNFLDEQGMNFNKLDAVVARGGLLKPISGGTFKVNDLMVEHLRQGYQGEHASNLGGIIAKEISNQLDIPAYIVDPVVVDELQDIARISGFEPIERKSIFHALNHKAVARKAAAQLGKKYEEANLVVVHLGGGISVGAHNCGDVIDVNNALDGEGPFSPERSGGLPNGDLVRYIDEHNLTWKELKRQLVGNGGLVSYLDTNDGKKVQEMIQSGDEKAEKVYEAMIYQIAKEIGSCAVVLKGELDAIVLTGGLAHDEYLVSRMKEYIKFLGEILVFPGEDEMQSLAEGGLRVLRNEETPKDYS |  |  | remaining activity [3]: 14.7%
11 | StBK: Symbiobacterium thermophilum-derived butyrate kinase prepared in Reference Example 6 (SEQ ID NO: 25, His tag) (protein, listed as Symbiobacterium thermophilum, His tag) MQQRLLIINPGSTSTKIAVYDDDSPLFAETLRHSAADLACFRDVAAQFPFRRDLILEALDAHGVSLSSLTAVVGRGGLLRPVRGGTYRVDAAMLAELSRAAHGEHASNLGALLAHEIAQAAGGVPAFIVDPVVVDELEPVARLTGLPEMPRRSVFHALNQKAVARRAAADLGRAYTEVNLVVVHLGGGISVGAHRRGRVVDVNNALDGEGPMAPERAGTVPSLGLVHLAFSWQHTLREVGRMLVGRGGLVAHVGTNDARRVEERIAAGDEAARVAYRAMAYQVAKEVGRAAVALGGQVDRIVLTGGLAHSEMLTGWIAEQVEWIAPVAVYPGEDEMAALAAGALRVLRGEEPAQVYGEAGE |  |  | remaining activity [3]: 48.7%
